The record followed here is patent publication US20240041899A1, “SOLID PREPARATION” (ASKA Pharmaceutical Co., Ltd., priority 2020, published 2024).

For test [1], the system named is rats having the urination disorder associated with diabetes. Put plainly: Test Example 6: urination disorder model associated with streptozocin-induced diabetes, compound A versus compound C. It is filed as in vivo. To be noted: STZ diabetes model. How it is done:
As described below, a model of a urination disorder associated with streptozocin-induced diabetes was prepared as a urination disorder model in accordance with Test Example 4 to evaluate the effects of the compound A and the compound C on a urination disorder. This model has no benign prostatic hyperplasia and is a model of a urination disorder associated with neuropathy and smooth muscle contraction disorder.
The body weights of Rats (male, Crl:CD(SD), 5-week-old; Charles River Laboratories Japan, Inc.) were measured. On the basis of the body weight, the rats were grouped or divided into two (2) groups. The day after the rats were grouped, a first group received intraperitoneal administration of a citrate buffer (pH 4.5) (10 mL/kg) having a concentration of 0.1 mmol/L, and a second group received intraperitoneal administration of streptozocin (STZ; Sigma-Aldrich) (50 mg/kg). Streptozocin (STZ) was administered in the form of a solution of streptozocin having a concentration of 5 mg/mL in the citrate buffer.
About one (1) week after streptozocin (STZ) was administered, the body weight and the fasting blood glucose were measured. In the streptozocin (STZ) administration group (the second group), individuals having a fasting blood glucose level of not less than 300 mg/dL were used as animals with induced diabetes. These animals with induced diabetes are a model having no abnormality of the prostate (having no benign prostatic hyperplasia). On the basis of the body weight and the fasting blood glucose level, the animals (models) with induced diabetes were grouped or divided into three (3) groups by randomized, multivariable block allocation.
To the three model groups with induced diabetes, a 0.5 v/v % Polysorbate 80 solution (0.5% P) (10 mL/kg), the compound A (3 mg/kg), and the compound C (dutasteride) (0.3 mg/kg) were orally administered, respectively, wherein the administration schedule in all groups was a frequency of once a day, only on weekdays, over four (4) weeks. Moreover, to the above-mentioned first group, a 0.5 v/v % Polysorbate 80 solution (0.5% P) (10 mL/kg) was orally administered in the same administration schedule (normal group). On the last day of administration, a cannula was inserted into and secured to the dome of the bladder under isoflurane anesthesia, and cystometry (Cystometogram, CMG) was conducted in the order of under awake condition and under urethane anesthesia to measure the intravesical pressure, the voided volume, and the residual urine volume. After the completion of the measurement, the blood was collected under deep isoflurane anesthesia, and then the prostate (ventral prostate, dorsolateral prostate) was extracted and each was weighed. Moreover, the blood glucose level in the collected blood was measured.
Normal group: citrate buffer 10 mL/kg (intraperitoneal administration), 0.5% P 10 mL/kg (oral administration) (n=10) • Solvent group (control group): STZ 50 mg/kg (intraperitoneal administration), 0.5% P 10 mL/kg (oral administration) (n=10) • Group A3: STZ 50 mg/kg (intraperitoneal administration), Compound A 3 mg/kg (oral administration) (n=10) • Group C0.3: STZ 50 mg/kg (intraperitoneal administration), Compound C (dutasteride) 0.3 mg/kg (oral administration) (n=10)
Urination parameter: In the same manner as in Test Example 4, the residual urine volume (mL) and the urination efficiency (%) were determined as urination parameters in each urination, and the average value of two measurements was taken as a measured value of each individual.
Prostate weight: In the same manner as in Test Example 4, the weight of the prostate (ventral prostate, dorsolateral prostate, and whole) was converted to a tissue weight per 100 g of the body weight. For Group A3, which received the compound A, and Group C0.3, which received the compound C, the inhibition rate of the weight of the prostate relative to the weight of the prostate in the solvent group was calculated (with one decimal place). […]

Test [2] deals with bladder specimen of high-week-old male rats. Put plainly: Test Example 3: isometric contraction test of bladder specimen from high-week-old male rats after oral dosing. It is filed as in vivo. To be noted: 22-week-old male rats, oral once a day 2 weeks, 10 mg/kg, compared with Group C (dutasteride 0.3 mg/kg). The source says: High-week-old male rats (22-week-old; Charles River Laboratories Japan, Inc.) were examined and evaluated for the relationship between the test substances and the bladder and urethra contraction reaction. Since the rats are high-week-old, the rats are a model in which the prostate is predicted to be enlarged.
A test substance was orally administered to the high-week-old male rats repeatedly at a frequency of once a day over two (2) weeks, and then, from each rat, a bladder specimen was extracted. The bladder specimen was suspended at a resting tension of about 9.8 mN in a constant-temperature Magnus tube (37° C.) filled with a physiological salt solution aerated with 95% 02-5% CO2 gas and was subjected to an isometric contraction test by applying a square-wave electrical field stimulation (EFS, Amplitude; 0.3 ms, Frequency; 1, 2, 5, 10, 20 Hz, Duration; 5 s); or Carbachol (CCH, 100 nmol/L to 100 μmol/L) and KCl (40, 80 mmol/L).
Solvent group (control group): 0.5 v/v % Polysorbate 80 solution, 10 mL/kg (n=6) • Group A: Compound A, 10 mg/kg (n=6) • Group C: Compound C (dutasteride), 0.3 mg/kg (n=6)

Setting [3] is: Compound A 3 mg/kg, in comparison with the solvent group (p<0.05).
The mark [4] stands for this setting: Compound A oral 3 mg/kg, 4 weeks.
[5] abbreviates: Compound A oral 3 mg/kg, relative to solvent group.

Take `CC(=O)O[C@]1(C(C)=O)C[C@@H](O)[C@H]2[C@@H]3C=C(Cl)C4=CC(=O)OC[C@]4(C)[C@H]3CC[C@@]21C` [Compound A, 17α-acetoxy-6-chloro-15β-hydroxy-2-oxa-4,6-pregnadiene-3,20-dione]: in test [1] (Compound A 3 mg/kg), the “therapeutic effect on diabetes” value is given as “no therapeutic effect”. The “weights of the ventral prostate, the dorsolateral prostate, and the whole prostate” value in test [1] (Compound A 3 mg/kg, compared with the solvent group (P<0.05)) is “significant decrease”. Besides, in test [1] (setting [3]), the “residual urine volume, cystometry (CMG) under awake condition” value was “significantly decreased” and the “urination efficiency, cystometry (CMG) under awake condition” value is reported as “significantly improved”. In test [1] (Compound A 3 mg/kg, in comparison with the solvent group and Group C0.3), the “bladder contraction force on urination by nomogram analysis” value is reported as “strong bladder contraction force”. Further, in test [1] (Compound A 3 mg/kg, vs solvent group), the “effect on the blood glucose level” value is “did not statistically affect”. For the same compound, in test [1] (setting [4]), the Blood glucose level is 972.4 ± 312.3 mg/dL; the “Prostate weight, dorsolateral prostate” value amounted to 38.8 ± 4.2 mg/100 g body weight; the “Prostate weight, ventral prostate” value stood at 61.2 ± 12.4 mg/100 g body weight; the “Prostate weight, whole” value amounted to 99.9 ± 15.5 mg/100 g body weight. In test [1] (setting [5]), the “Dorsolateral prostate atrophy rate” value was “(40.2%)”, the “Ventral prostate atrophy rate” value is given as “(40.0%)” and the “Whole prostate atrophy rate” value is recorded as “(40.1%)”. Also, the “bladder contraction tension caused by square-wave electrical field stimulation or Carbachol and KCl” value in test [2] is “significantly strong or has a strong directionality”.
